This is an account of results in US20230031406A1, “COMPOUNDS AND COMPOSITIONS FOR TREATING CONDITIONS ASSOCIATED WITH NLRP ACTIVITY” (Novartis AG, priority 2018, published 2023).

This test relates to PMA-differentiated THP-1 cells. The test is described as follows: IL-1β production in PMA-differentiated THP-1 cells stimulated with gramicidin (hTHP-1 assay containing 2% fetal bovine serum; Procedures 1 and 2). In kind it is cell-based, human. The settings on record: 2% fetal bovine serum. The method, then: The following protocol is suitable for testing the activity of the compounds disclosed herein. Procedure 1: IL-1β Production in PMA-Differentiated THP-1 Cells Stimulated with Gramicidin.
THP-1 cells were purchased from the American Type Culture Collection and sub-cultured according to instructions from the supplier. Cells were cultured in complete RPMI 1640 (containing 10% heat inactivated FBS, penicillin (100 units/ml) and streptomycin (100 μg/ml)), and maintained in log phase prior to experimental setup. Prior to the experiment, compounds were dissolved in dimethyl sulfoxide (DMSO) to generate a 30 mM stock. The compound stock was first pre-diluted in DMSO to 3, 0.34, 0.042 and 0.0083 mM intermediate concentrations and subsequently spotted using Echo550 liquid handler into an empty 384-well assay plate to achieve desired final concentration (e.g. 100, 33, 11, 3.7, 1.2, 0.41, 0.14, 0.046, 0.015, 0.0051, 0.0017 μM). DMSO was backfilled in the plate to achieve a final DMSO assay concentration of 0.37%. The plate was then sealed and stored at room temperature until required.
THP-1 cells were treated with PMA (Phorbol 12-myristate 13-acetate) (20 ng/ml) for 16-18 hours. On the day of the experiment the media was removed and adherent cells were detached with trypsin for 5 minutes. Cells were then harvested, washed with complete RPMI 1640, spun down, and resuspended in RPMI 1640 (containing 2% heat inactivated FBS, penicillin (100 units/ml) and streptomycin (100 μg/ml). The cells were plated in the 384-well assay plate containing the spotted compounds at a density of 50,000 cells/well (final assay volume 50 μl). Cells were incubated with compounds for 1 hour and then stimulated with gramicidin (5 μM) (Enzo) for 2 hours. Plates were then centrifuged at 340 g for 5 min. Cell free supernatant (40 μL) was collected using a 96—CHannel PlateMaster (Gilson) and the production of IL-1β was evaluated by HTRF (cisbio). The plates were incubated for 18 h at 4° C. and read using the preset HTRF program (donor emission at 620 nm, acceptor emission at 668 nm) of the SpectraMax i3x spectrophotometer (Molecular Devices, software SoftMax 6). A vehicle only control and a dose titration of CRID3 (100-0.0017 μM) were run concurrently with each experiment.
Procedure 2: IL-1β Production in PMA-Differentiated THP-1 Cells Stimulated with Gramicidin.
THP-1 cells were purchased from the American Type Culture Collection and sub-cultured according to instructions from the supplier. Prior to experiments, cells were cultured in complete RPMI 1640 (containing 10% heat inactivated FBS, penicillin (100 units/ml) and streptomycin (100 μg/ml)), and maintained in log phase prior to experimental setup. Prior to the experiment THP-1 were treated with PMA (Phorbol 12-myristate 13-acetate) (20 ng/ml) for 16-18 hours. Compounds were dissolved in dimethyl sulfoxide (DMSO) to generate a 30mM stock. On the day of the experiment the media was removed and adherent cells were detached with trypsin for 5 minutes. Cells were then harvested, washed with complete RPMI 1640, spun down, resuspended in RPMI 1640 (containing 2% heat inactivated FBS, penicillin (100 units/ml) and streptomycin (100 μg/ml). The cells were plated in a 384-well plate at a density of 50,000 cells/well (final assay volume […]). Compounds were first dissolved in assay medium to obtain a 5× top concentration of 500 μM. 10 step dilutions (1:3) were then undertaken in assay medium containing 1.67% DMSO. 5× compound solutions were added to the culture medium to achieve desired final concentration (e.g. 100, 33, 11, 3.7, 1.2, 0.41, 0.14, 0.046, 0.015, 0.0051, 0.0017 μM). Final DMSO concentration was at 0.37%. Cells were incubated with compounds for 1 hour and then stimulated with gramicidin (5 μM) (Enzo) for 2 hours. Plates were then centrifuged at 340 g for 5 min. Cell free supernatant (40 μL) was collected using a 96—CHannel PlateMaster (Gilson) and the production of IL-1β was evaluated by HTRF (cisbio). […]

The mark [1] stands for this setting: Table B2, class symbols, read-out: hTHP-1 IC50.
Setting [2] is: Homo sapiens, THP-1, Table B4, class symbols, read-out: hTHP-1 IC50.
[3] abbreviates: Homo sapiens, THP-1, Table B3, hTHP-1 assay, numeric values, read-out: IC50.
Setting [4] is: Table B3, hTHP-1 assay, class symbols, read-out: IC50.
Where [5] appears, read: Homo sapiens, THP-1, Table B1, class symbols, read-out: Average IC50 of compounds in hTHP-1 assay: hTHP-1 IC50.
Setting [6] is: Homo sapiens, THP-1, Table B3, hTHP-1 assay, class symbols, read-out: IC50.
Setting [7] is: Homo sapiens, THP-1, Table B2, class symbols, read-out: hTHP-1 IC50.

Read-outs that look alike come from different tables or passages of the source.

Regarding `CC1CCc2c1nc1c(c2NC(=O)N=S(N)(=O)c2cnn(C(C)C)c2)CCC1` (single isomer, unassigned) [Compound 171d, (S, S) and (S, R) or (R, S) and (R, R)-1-Isopropyl-N′-((3-methyl-1,2,3,5,6,7-hexahydrodicyclopenta [b,e]pyridin-8-yl)carbamoyl)-1H-pyrazole-4-sulfonimidamide], the IC50 (Table B2, numeric bounds, read-out: hTHP-1 IC50) was more than 30 µM.
`CC(C)(O)c1sc(S(N)(=O)=NC(=O)Nc2c3c(nc4c2CCC4(C)C)CCC3)nc1CO` (single isomer, unassigned) [Compound 642b, (R) or (S)-N′-((3,3-dimethyl-1,2,3,5,6,7-hexahydrodicyclopenta [b,e]pyridin-8-yl)carbamoyl)-4-(hydroxymethyl)-5-(2-hydroxypropan-2-yl)thiazole-2-sulfonimidamide]: the IC50 under setting [1] was in the range of 0.04 to 0.2 µM.
As for `CC1(C)CCc2c1nc1c(c2NC(=O)N=S(N)(=O)c2cnc(C(O)CO)s2)CCC1` (stereo not drawn) [Example 753, 2-(1,2-Dihydroxyethyl)-N′-((3,3-dimethyl-1,2,3,5,6,7-hexahydrodicyclopenta[b,e]pyridin-8-yl)carbamoyl) thiazole-5-sulfonimidamide], under setting [2], the IC50 was in the range of 0.2 to 1 µM.
Regarding `CC1CCc2c1nc1c(c2NC(=O)N=S(N)(=O)c2cn(C(C)C)cn2)CCC1` (single isomer, unassigned) [Compound 660c, (S, R) or (R, S) or (S, S) or (R, R)-1-Isopropyl-N′-((3-methyl-1,2,3,5,6,7-hexahydrodicyclopenta [b,e]pyridin-8-yl)carbamoyl)-1H-imidazole-4-sulfonimidamide], under “Homo sapiens, THP-1, Table B2, numeric bounds, read-out: hTHP-1 IC50”, the IC50 was more than 30 µM.
With `Cc1c(C2(C)CC2)nc2c(c1NC(=O)N=S(N)(=O)c1cnc(C(C)(O)CO)s1)CCC2` (stereo not drawn) [Example 606, 2-(1,2-Dihydroxypropan-2-yl)-N′-((3-methyl-2-(1-methylcyclopropyl)-6,7-dihydro-5H-cyclopenta[b]pyridin-4-yl)carbamoyl)thiazole-5-sulfonimidamide], under setting [3], the IC50 was more than 30 µM.
With `CCn1ccc(S(N)(=O)=NC(=O)Nc2c(C)c(C(F)(F)F)nc3c2CCC3)n1` (single isomer, unassigned) [Example 692, (S) or (R)-1-Ethyl-N′-((3-methyl-2-(trifluoromethyl)-6,7-dihydro-5H-cyclopenta[b]pyridin-4-yl)carbamoyl)-1H-pyrazole-3-sulfonimidamide], under setting [4], the IC50 lay in the range of 5 to 30 µM.
As to `CC(C)n1cc(F)c(S(N)(=O)=NC(=O)Nc2c3c(nc4c2CCC4)CCC3)n1` (stereo not drawn) [Example 750, 4-Fluoro-N′-((1,2,3,5,6,7-hexahydrodicyclopenta[b,e]pyridin-8-yl)carbamoyl)-1-isopropyl-1H-pyrazole-3-sulfomidamide], the IC50 under setting [2] is 0.2 to 1 µM.
Turning to `Cc1nc2c(c(NC(=O)N=S(N)(=O)c3cnc(C(C)(C)O)s3)c1C(C)C)CCC2` (single isomer, unassigned) [Compound 116b, (R) or (S)-2-(2-hydroxypropan-2-yl)-N′-((3-isopropyl-2-methyl-6,7-dihydro-5H-cyclopenta[b]pyridin-4-yl)carbamoyl)thiazole-5-sulfonimidamide], the IC50 under setting [5] fell in the range of 5 to 30 µM.
As to `Cc1c(C2(F)CC2)nc2c(c1NC(=O)N=S(N)(=O)c1cc(C(C)(C)O)cs1)CCC2` (single isomer, unassigned) [Example 684, (S) or (R)-N′-((2-(1-fluorocyclopropyl)-3-methyl-6,7-dihydro-5H-cyclopenta[b]pyridin-4-yl)carbamoyl)-4-(2-hydroxypropan-2-yl)thiophene-2-sulfonimidamide], the IC50 under setting [3] was more than 30 µM.
Consider `Cc1c(C(F)(F)F)nc2c(c1NC(=O)N=S(N)(=O)c1cnc(C(C)(C)O)s1)CCC2C` (single isomer, unassigned) [Example 704, (R/S, R) or (R/S, S)-N′-((3,7-dimethyl-2-(trifluoromethyl)-6,7-dihydro-5H-cyclopenta[b]pyridin-4-yl)carbamoyl)-2-(2-hydroxypropan-2-yl)thiazole-5-sulfonimidamide], for which, under setting [4], the IC50 lay within 0.2 to 1 µM.
On to `CCn1cc(F)c(S(N)(=O)=NC(=O)Nc2c3c(nc4c2CCC42CC2)CCC3)n1` (stereo not drawn) [Example 628, 1-Ethyl-4-fluoro-N′-((1′,5′,6′,7′-tetrahydro-2′H-spiro[cyclopropane-1,3′-dicyclopenta[b,e]pyridin]-8′-yl)carbamoyl)-1H-pyrazole-3-sulfonimidamide], for which the IC50 under setting [6] is 0.04 to 0.2 µM.
As for `Cc1c(C(F)(F)F)nc2c(c1NC(=O)N=S(N)(=O)c1cnc(C(C)(C)O)s1)CCC2` (single isomer, unassigned) [Compound 661b, (S) or (R)-2-(2-Hydroxypropan-2-yl)-N′-((3-methyl-2-(trifluoromethyl)-6,7-dihydro-5H-cyclopenta[b]pyridin-4-yl)carbamoyl)thiazole-5-sulfonimidamide], the IC50 under setting [1] fell in the range of 5 to 30 µM.
As to `CC(C)c1cncc(C(C)C)c1NC(=O)N=S(N)(=O)c1cnc(C(C)(C)O)s1` (stereo not drawn) [Compound 160, N′-((3,5-diisopropylpyridin-4-yl)carbamoyl)-2-(2-hydroxypropan-2-yl)thiazole-5-sulfonimidamide], the IC50 under setting [5] lay within 5 to 30 µM.
On to `CCc1ccsc1S(N)(=O)=NC(=O)Nc1c2c(nc3c1CC[C@H]3C)CCC2` (stereo partly drawn) [Example 631, 3-Ethyl-N′-(((R)-3-methyl-1,2,3,5,6,7-hexahydrodicyclopenta[b,e]pyridin-8-yl)carbamoyl)thiophene-2-sulfonimidamide], for which the IC50 under setting [6] was in the range of 1 to 5 µM.
Consider `CC1CCc2c1nc1c(c2NC(=O)N=S(N)(=O)c2cn(C(C)C)cn2)CCC1` (stereo not drawn) [Compound 660, 1-Isopropyl-N′-((3-methyl-1,2,3,5,6,7-hexahydrodicyclopenta[b,e]pyridin-8-yl)carbamoyl)-1H-imidazole-4-sulfonimidamide], for which the IC50 under setting [1] was in the range of 5 to 30 µM.
With `CC(C)(O)c1ccc(S(N)(=O)=NC(=O)Nc2c3c(nc4c2CCC4(C)C)CCC3)cn1` (single isomer, unassigned) [Compound 673a, (R) or (S)-N′-((3,3-dimethyl-1,2,3,5,6,7-hexahydrodicyclopenta [b,e]pyridin-8-yl)carbamoyl)-6-(2-hydroxypropan-2-yl)pyridine-3-sulfonimidamide], under setting [7], the IC50 was in the range of 1 to 5 µM.
Regarding `Cc1c(C(C)C)nc2c(c1NC(=O)N=S(N)(=O)c1cc(C(C)(C)O)cs1)CCC2` (stereo not drawn) [Compound 681, 4-(2-Hydroxypropan-2-yl)-N′-((2-isopropyl-3-methyl-6,7-dihydro-5H-cyclopenta[b]pyridin-4-yl)carbamoyl)thiophene-2-sulfonimidamide], the half-inhibitory concentration (IC50) under setting [7] lay in the range of 0.04 to 0.2 µM.
With `CCn1nc(S(N)(=O)=NC(=O)Nc2c3c(nc4c2CCC4(C)C)CCC3)cc1CO` (stereo not drawn) [Example 591, N′-((3,3-dimethyl-1,2,3,5,6,7-hexahydrodicyclopenta[b,e]pyridin-8-yl)carbamoyl)-1-ethyl-5-(hydroxymethyl)-1H-pyrazole-3-sulfonimidamide], the IC50 under setting [6] is 1 to 5 µM.
